Experimental data from EP3797781A1, “USE OF EC-7072 AND SYNERGIC COMPOSITIONS THEREOF IN TREATMENT OF CHRONIC LYMPHOCYTIC LEUKEMIA” (priority 2019, dated 2021).

System: histone H2AX
Assay: Phosphoflow of phosphorylated H2AX in isolated leukemia cells
Assay type: cell-based, human
Conditions: 200 nM, 12 hours; isolated leukemia cells (n = 4)
Method: Protein phosphorylation levels were evaluated by phosphoflow. Briefly, isolated leukemia cells from patients with CLL were treated with 200 nM EC-7072 or DMSO for 8 or 12 hours. In some experiments, BCR signaling was activated with goat F(ab')2 anti-IgM antibody (10 µg/mL; SouthernBiotech) for 45 minutes. Right afterwards, cells were fixed with 1.8% paraformaldehyde for 10 minutes at RT and permeabilized with 90% ice-cold methanol for 25 minutes at 4 °C. Finally, cells were incubated with specific phospho-antibodies (p-SYK, p-BTK, p-ERK1/2 and p-H2AX from Biolegend, and p-PLCγ2, p-AKT, p-p65 NF-κB and p-STAT3 from BD Bioscience) for 30 minutes at RT and mean fluorescence intensity (MFI) was analyzed by flow cytometry.
The induction of caspase-dependent apoptosis on primary CLL cells by EC-7072 was assessed by: • (i) incubating PBMCs isolated from patients with CLL (n = 6) following treatment with increasing concentrations of EC-7072 (0 - 400 nM) for 24 hours. Apoptosis of leukemia cells was evaluated by cytofluorometric assessment of Annexin V/PI staining to obtain percentages of apoptotic [Annexin V^+ PI^-] and dead [PI^+] cells (Figure 3A); • (ii) incubating PBMCs and T cells isolated from patients with CLL (n = 3) following treatment with EC-7072 (200 nM) for 24 hours. […]

CO[C@@H]([C@@H]1Cc2cc3cc(O[C@H]4C[C@@H](O[C@H]5C[C@@H](O)[C@H](O)[C@@H](C)O5)[C@H](O)[C@@H](C)O4)c(C)c(O)c3c(O)c2C(=O)[C@H]1O[C@H]1C[C@@H](O[C@H]2C[C@@H](O[C@H]3C[C@](C)(O)[C@H](O)[C@@H](C)O3)[C@@H](O)[C@@H](C)O2)[C@H](O)[C@@H](C)O1)[C@@H](O)C(C)=O [EC-7072, mithramycin SK]
phosphorylation of histone H2AX: heightened phosphorylation
